For one assay, the target named is HIV-1 protease (Human immunodeficiency virus type 1 group M subtype B, UniProt P04585). The assay is described as follows: biochemical.
The next assay concerns HIV-1 (strain IIIB). The assay is described as follows: microbe, parasite or virus in culture. The assay is classed as cell-based. The settings on record: Human immunodeficiency virus 1, IIIB.
Setting [1] is: Table 12, HIV-1 protease, read-out: Ki.
[2] abbreviates: MT4, Table 12, anti-viral potency in MT-4 cells, read-out: IC50.
Setting [3] is: MT4, antiviral assay, MT4 cells infected with HIV-1 (strain IIIB), class symbol, read-out: IC50 (activity range).
[4] abbreviates: MT4, Table 13, MT-4 cell based assay, class symbol, read-out: IC50.

Molecules are shown by their SMILES. Like-named read-outs stand apart in the source and are kept apart here.

Take `CCC(CCC1(C)OCCO1)CN(C[C@@H](O)[C@H](Cc1ccccc1)NC(=O)OC(C)(C)C)S(=O)(=O)c1ccc(OC)cc1` (mixture of isomers) [Compound 202, tert-ButylN-((1S,2R)-1-benzyl-3-[2-ethyl-4-(2-methyl-1,3-dioxolan-2-yl)butyl][(4-methoxyphenyl)sulfonyl]amino-2-hydroxypropyl)carbamate]: the Ki on HIV-1 protease (setting [1]) was in the range of 1 to 10 nM. The IC50 with HIV-1 (strain IIIB) (setting [2]) was above 1000 nM.

For the compound `CCOC(=O)CNC(=O)NCCCC(C)(C)CN(CC(O)C(Cc1ccccc1)NC(=O)OC1COC2OCCC12)S(=O)(=O)c1ccc(OC)cc1` (mixture of isomers) [Compound 216, Ethyl (3S,4R)-1-[(3R,3aS,6aR)hexahydrofuro[2,3-b]furan-3-yloxy]-3-benzyl-4-hydroxy-6-[(4-methoxyphenyl)sulfonyl]-8,8-dimethyl-1,13-dioxo-2,6,12,14-tetraazahexadecan-16-oate and Ethyl (3S,4R)-1-[(3S,3aR,6aS)hexahydrofuro[2,3-b]furan-3-yloxy]-3-benzyl-4-hydroxy-6-[(4-methoxyphenyl)sulfonyl]-8,8-dimethyl-1,13-dioxo-2,6,12,14-tetraazahexadecan-16-oate], the inhibitory constant (Ki) on HIV-1 protease (setting [1]) is below 1 nM. Also, the concentration for half-maximal inhibition (IC50) in the assay with HIV-1 (strain IIIB) (setting [2]) is at most 100 nM.

On to `COc1ccc(S(=O)(=O)N(CC(C)CCC#N)CC(O)C(Cc2ccccc2)NC(=O)OC(C)(C)C)cc1` [Compound 2, ter-Butyl N-((1S,2R)-1-benzyl-3-[(2RS)-(4-cyano-2-methylbutyl)][(4-methoxyphenyl)sulfonyl]amino-2-hydroxypropyl)carbamate], for which, on HIV-1 protease (setting [1]), the Ki is below 1 nM. For the same compound, the half-maximal inhibitory concentration (IC50) in the assay on HIV-1 (strain IIIB) (setting [2]) was above 1000 nM.

Take `CC(C)(CCC#N)CN(C[C@@H](O)[C@H](Cc1ccccc1)NC(=O)OC(C)(C)C)S(=O)(=O)c1cccc(N)c1` [Compound 5, tert-ButylN-((1S,2R)-3-[(3-aminophenyl)sulfonyl](4-cyano-2,2-dimethylbutyl)amino-1-benzyl-2-hydroxypropyl)carbamate]: the inhibitory constant (Ki) on HIV-1 protease (setting [1]) is below 1 nM. Also, in the assay on HIV-1 (strain IIIB) (setting [2]), the IC50 was above 1000 nM.

For `CC(C)(CCC#N)CN(C[C@@H](O)[C@H](Cc1ccccc1)NC(=O)OC(C)(C)C)S(=O)(=O)c1ccc2c(c1)OCO2` [Compound 6, {(1S,2R)-3-[(Benzo[1,3]dioxole-5-sulfonyl)-(4-cyano-2,2-dimethyl-butyl)-amino]-1-benzyl-2-hydroxy-propyl}-carbamic acid tert-butyl ester], the Ki at HIV-1 protease (setting [1]) is below 1 nM.

Regarding `CCNc1cccc(S(=O)(=O)N(CC(O)C(Cc2ccccc2)NC(=O)OC2COC3OCCC23)CC(C)(C)CCC#N)c1` [Compound 44, {(1S,2R)-3-[(3-N-ethylaminophenyl)sulfonyl]-(4-cyano-2,2-dimethyl-butyl)-amino]-1-benzyl-2-hydroxy-propyl}carbamic acid (3R,3aS,6aR)hexahydro-furo[2,3-b]furan-3-yl ester], the inhibition constant (Ki) at HIV-1 protease (setting [1]) was below 1 nM.

Take `COc1ccc(S(=O)(=O)N(CCC#N)C[C@@H](O)[C@H](Cc2ccccc2)NC(=O)OC(C)(C)C)cc1` [Compound 123]: the inhibitory constant (Ki) at HIV-1 protease (setting [1]) was in the range of 10 to 100 nM.

`CC(C)(C)OC(=O)N[C@@H](Cc1ccccc1)[C@H](O)CN(CCC#N)S(=O)(=O)c1cccc(N)c1` [Compound 127]: the Ki at HIV-1 protease (setting [1]) fell in the range of 10 to 100 nM.

On to `COc1ccc(S(=O)(=O)N(CC(O)[C@H](Cc2ccccc2)NC(=O)OC(C)(C)C)CC(C)(C)CCOC(N)=O)cc1` (stereo partly drawn) [Compound 234, ter-Butyl N-((1S,2R)-1-benzyl-3-(4-carbamoyloxy-2,2-dimethylbutyl)[(4-methoxyphenyl)sulfonyl]amino-2-hydroxypropyl)carbamate], for which, at HIV-1 protease (setting [1]), the Ki was below 1 nM.

On to `COc1ccc(S(=O)(=O)N(CCC(C)CCC=O)C[C@@H](O)[C@H](Cc2ccccc2)NC(=O)OC(C)(C)C)cc1` (stereo partly shown) [Compound 277], for which the Ki at HIV-1 protease (setting [1]) lay in the range of 1 to 10 nM.

As to `CC(CCC=O)CCN(C[C@@H](O)[C@H](Cc1ccccc1)NC(=O)OC(C)(C)C)S(=O)(=O)c1ccc2c(c1)OCO2` (stereo partly shown) [Compound 278], the Ki at HIV-1 protease (setting [1]) was 1 to 10 nM.

As for `COc1ccc(S(=O)(=O)N(CCC(C)=O)C[C@@H](O)[C@H](Cc2ccccc2)NC(=O)OC(C)(C)C)cc1` [Compound 279], the Ki on HIV-1 protease (setting [1]) is 10 to 100 nM.

On to `CC(C)(CCCCN)CN(C[C@@H](O)[C@H](Cc1ccccc1)NC(=O)O[C@H]1CCOC1)S(=O)(=O)c1ccc2c(c1)OCO2` [Compound 295, (3S)-tetrahydro-3-furanyl N-(1S,2R)-3-[(1,3-benzodioxol-5-ylsulfonyl)(6-amino-2,2-dimethylhexyl)amino]-1-benzyl-2-hydroxypropylcarbamate], for which, in the assay on HIV-1 (strain IIIB) (setting [3]), the IC50 fell in the range of 100 to 500 nM.

For the compound `CC(C)(CCCCN)CN(CC(O)[C@H](Cc1ccccc1)NC(=O)OC1CCOC1)S(=O)(=O)c1ccc(N)cc1` (stereo partly drawn) [Compound 296, (3S)-tetrahydro-3-furanyl N-(1S,2R)-3-[(4-aminophenylsulfonyl)(6-amino-2,2-dimethylhexyl)amino]-1-benzyl-2-hydroxypropylcarbamate], in the assay on HIV-1 (strain IIIB) (setting [3]), the IC50 was in the range of 100 to 500 nM.

In the case of `CC(C)(CCCCN)CN(CC(O)[C@H](Cc1ccccc1)NC(=O)OC1COCOC1)S(=O)(=O)c1ccc2c(c1)OCO2` (stereo partly drawn) [Compound 297, [1,3]-dioxan-5-yl N-(1S,2R)-3-[(1,3-benzodioxol-5-ylsulfonyl)(6-amino-2,2-dimethylhexyl)amino]-1-benzyl-2-hydroxypropylcarbamate], the half-inhibitory concentration (IC50) with HIV-1 (strain IIIB) (setting [3]) is 100 to 500 nM.

For the compound `CC(C)(CCNC(=O)C(C)(C)C)CN(C[C@@H](O)[C@H](Cc1ccccc1)NC(=O)O[C@H]1CO[C@H]2OCC[C@H]21)S(=O)(=O)c1ccc2c(c1)OCO2` [Compound 374], the IC50 in the assay on HIV-1 (strain IIIB) (setting [4]) fell in the range of 1 to 10 nM.

With `CC(C)(CCNC(=O)C1CCC1)CN(C[C@@H](O)[C@H](Cc1ccccc1)NC(=O)O[C@H]1CO[C@H]2OCC[C@H]21)S(=O)(=O)c1ccc2c(c1)OCO2` [Compound 375], the half-maximal inhibitory concentration (IC50) with HIV-1 (strain IIIB) (setting [4]) fell in the range of 1 to 10 nM.

As for `CC(C)CC(=O)NCCC(C)(C)CN(C[C@@H](O)[C@H](Cc1ccccc1)NC(=O)O[C@H]1CO[C@H]2OCC[C@H]21)S(=O)(=O)c1ccc2c(c1)OCO2` [Compound 376], the concentration for half-maximal inhibition (IC50) in the assay on HIV-1 (strain IIIB) (setting [4]) is 1 to 10 nM.

On to `CC(C)(CCNC(=O)c1ccccc1)CN(C[C@@H](O)[C@H](Cc1ccccc1)NC(=O)O[C@H]1CO[C@H]2OCC[C@H]21)S(=O)(=O)c1ccc2c(c1)OCO2` [Compound 377], for which the half-inhibitory concentration (IC50) in the assay with HIV-1 (strain IIIB) (setting [4]) lay in the range of 1 to 10 nM.

For the compound `CC(C)(CCNC(=O)c1ccco1)CN(C[C@@H](O)[C@H](Cc1ccccc1)NC(=O)O[C@H]1CO[C@H]2OCC[C@H]21)S(=O)(=O)c1ccc2c(c1)OCO2` [Compound 378], in the assay on HIV-1 (strain IIIB) (setting [4]), the half-maximal inhibitory concentration (IC50) was in the range of 1 to 10 nM.

Turning to `CC(C)(CCNC(=O)c1cccs1)CN(C[C@@H](O)[C@H](Cc1ccccc1)NC(=O)O[C@H]1CO[C@H]2OCC[C@H]21)S(=O)(=O)c1ccc2c(c1)OCO2` [Compound 379], in the assay on HIV-1 (strain IIIB) (setting [4]), the IC50 lay in the range of 1 to 10 nM.

As to `CC(C)(CCNC(=O)CCC1CCCC1)CN(C[C@@H](O)[C@H](Cc1ccccc1)NC(=O)O[C@H]1CO[C@H]2OCC[C@H]21)S(=O)(=O)c1ccc2c(c1)OCO2` [Compound 402], the IC50 in the assay with HIV-1 (strain IIIB) (setting [3]) lay within 100 to 500 nM.

For `CC(C)(CCNC(=O)CN)CN(CC(O)C(Cc1ccccc1)NC(=O)OC1COC2OCCC12)S(=O)(=O)c1ccc2c(c1)OCO2` [Compound 520, (3R,3aS,6aR)hexahydrofuro[2,3-b]furan-3-yl N-(1S,2R)-3-[(4-[(amino)acetylamino]-2,2-dimethylbutyl)(1,3-benzodioxol-5-ylsulfonyl)amino]-1-benzyl-2-hydroxypropylcarbamate], the IC50 in the assay on HIV-1 (strain IIIB) (setting [3]) fell in the range of 100 to 500 nM.

As for `CC(=O)NCC(=O)NCCC(C)(C)CN(CC(O)C(Cc1ccccc1)NC(=O)OC1COC2OCCC12)S(=O)(=O)c1ccc2c(c1)OCO2` (stereo not shown) [Compound 523], the IC50 in the assay with HIV-1 (strain IIIB) (setting [3]) was in the range of 100 to 500 nM.

With `CN(C)C(=O)NCC(=O)NCCC(C)(C)CN(CC(O)C(Cc1ccccc1)NC(=O)OC1COC2OCCC12)S(=O)(=O)c1ccc2c(c1)OCO2` (stereo not shown) [Compound 526], in the assay on HIV-1 (strain IIIB) (setting [3]), the half-inhibitory concentration (IC50) lay within 100 to 500 nM.

Regarding `COCC(=O)NCC(=O)NCCC(C)(C)CN(CC(O)C(Cc1ccccc1)NC(=O)OC1COC2OCCC12)S(=O)(=O)c1ccc2c(c1)OCO2` (stereo not shown) [Compound 527], the half-inhibitory concentration (IC50) with HIV-1 (strain IIIB) (setting [3]) is 100 to 500 nM.

Consider `CC(C)(CCNC(=O)CNS(C)(=O)=O)CN(CC(O)C(Cc1ccccc1)NC(=O)OC1COC2OCCC12)S(=O)(=O)c1ccc2c(c1)OCO2` (stereo not shown) [Compound 528], for which the IC50 in the assay with HIV-1 (strain IIIB) (setting [3]) lay in the range of 100 to 500 nM.

Consider `CNC(=O)NCC(=O)NCCC(C)(C)CN(CC(O)C(Cc1ccccc1)NC(=O)OC1COC2OCCC12)S(=O)(=O)c1ccc2c(c1)OCO2` (stereo not shown) [Compound 529], for which the Ki on HIV-1 protease was below 1 nM.

`CNC(=O)NCC(=O)NCCCC(C)(C)CN(CC(O)C(Cc1ccccc1)NC(=O)OC1COC2OCCC12)S(=O)(=O)c1ccc2c(c1)OCO2` (stereo not shown) [Compound 536]: the inhibitory constant (Ki) on HIV-1 protease was below 1 nM.

As to `CN(C)C(=O)NCC(=O)NCCCCC(C)(C)CN(CC(O)C(Cc1ccccc1)NC(=O)OC1COC2OCCC12)S(=O)(=O)c1ccc2c(c1)OCO2` (stereo not shown) [Compound 540], the IC50 with HIV-1 (strain IIIB) (setting [3]) was in the range of 100 to 500 nM.

With `CC(C)(CCCCNC(=O)CNS(C)(=O)=O)CN(CC(O)C(Cc1ccccc1)NC(=O)OC1COC2OCCC12)S(=O)(=O)c1ccc2c(c1)OCO2` (stereo not shown) [Compound 542], in the assay with HIV-1 (strain IIIB) (setting [3]), the IC50 was 100 to 500 nM.

Take `CNC(=O)NCC(=O)NCCCCC(C)(C)CN(CC(O)C(Cc1ccccc1)NC(=O)OC1COC2OCCC12)S(=O)(=O)c1ccc2c(c1)OCO2` (stereo not shown) [Compound 543]: the Ki on HIV-1 protease was below 1 nM.

With `CN(C)C(=NC#N)NCCC(C)(C)CN(CC(O)C(Cc1ccccc1)NC(=O)OC1COC2OCCC12)S(=O)(=O)c1ccc2c(c1)OCO2` (stereo not shown) [Compound 563], in the assay on HIV-1 (strain IIIB) (setting [3]), the IC50 is 100 to 500 nM.

With `CC(C)(CCOC(=O)NO)CN(CC(O)C(Cc1ccccc1)NC(=O)OC1COC2OCCC12)S(=O)(=O)c1ccc2c(c1)OCO2` (stereo not shown) [Compound 605], the IC50 with HIV-1 (strain IIIB) (setting [3]) is 100 to 500 nM.

Turning to `CC(C)CN(CC(O)C(Cc1ccccc1)NC(=O)OC1CCOC1)S(=O)(=O)c1ccc(N)cc1` [Compound A, 4-amino-N-((2 syn, 3S)-2-hydroxy-4-phenyl-3-((S)-tetrahydrofuran-3-yloxycarbonylamino)-butyl)-N-isobutyl-benzenesulfonamide, reference compound], the half-maximal inhibitory concentration (IC50) was 80 nM in the assay on HIV-1 (strain IIIB) (MT4, MT-4 cells, comparison compound, read-out: IC50 in the MT-4 cell based assay) and 80 nM in the assay with HIV-1 (strain IIIB) (MT4, Table 13, MT-4 cell based assay, numeric value, comparison compound, read-out: IC50).

The record behind these values is patent publication US6617350B2, “Inhibitors of aspartyl protease” (priority 1999, dated 2003).
